Experimental data: US4269820A, “Safeguarded toxic chemical compositions containing effective emesis-inducing S-triazolo-[1,5-α]pyrimidine derivatives” (priority 1977, dated 1981)

Tests used:
[1] = in vivo; cited from earlier work
[2] = cited from earlier work
[3] = Time to emesis and survival after oral administration of pesticide with or without emetic (Example 27, Table 1); assay type: in vivo, Macaca fascicularis (Cynomolgus monkeys); conditions: for Animals in which emesis took place / Survival number after 14 days: 2 animals
[4] = in vivo; conditions: cynomolgus monkey, po

SMILES	Side effects of known emetic [1]	Stability in air [2]	Animals in which emesis took place ([3]; Malathion only, 500 mg/kg)	Survival number after 14 days ([3]; Malathion only, 500 mg/kg)	LD50 [4] [mg/kg]	Time to emesis ([3]; Parathion only, 200 mg/kg) [h]	Animals in which emesis took place ([3]; Parathion only, 200 mg/kg)	Survival number after 14 days ([3]; Parathion only, 200 mg/kg)
CN1CCc2cccc3c2[C@H]1Cc1ccc(O)c(O)c1-3 [apomorphine]	may induce protracted vomiting and shock	unstable in air, oxidising readily						
CCOC(=O)CC(SP(=S)(OC)OC)C(=O)OCC (stereo not drawn) [Malathion, S-[1,2-di(ethoxycarbonyl)ethyl] dimethyl phosphorothiolothionate]			1	0	270 to 400			
CCOP(=S)(OCC)Oc1ccc([N+](=O)[O-])cc1 [Parathion, diethyl 4-nitrophenyl phosphorothionate]					~100	1	1	0
